# Experiments:
# Assay type in all cases: biochemical
# [1] = molecular target: T1, protein tyrosine phosphatase PTP1B (Homo sapiens, UniProt P18031); assay: DiFMUP test, inhibition of PTP1B; settings: DiFMUP substrate, 100 ng PTP1B/ml, pH 6.9, 37° C.; read-out: inhibitor concentration that reduces the activity of the PTP1B by half (IC-50)
# T1 sequence (P18031 1-435): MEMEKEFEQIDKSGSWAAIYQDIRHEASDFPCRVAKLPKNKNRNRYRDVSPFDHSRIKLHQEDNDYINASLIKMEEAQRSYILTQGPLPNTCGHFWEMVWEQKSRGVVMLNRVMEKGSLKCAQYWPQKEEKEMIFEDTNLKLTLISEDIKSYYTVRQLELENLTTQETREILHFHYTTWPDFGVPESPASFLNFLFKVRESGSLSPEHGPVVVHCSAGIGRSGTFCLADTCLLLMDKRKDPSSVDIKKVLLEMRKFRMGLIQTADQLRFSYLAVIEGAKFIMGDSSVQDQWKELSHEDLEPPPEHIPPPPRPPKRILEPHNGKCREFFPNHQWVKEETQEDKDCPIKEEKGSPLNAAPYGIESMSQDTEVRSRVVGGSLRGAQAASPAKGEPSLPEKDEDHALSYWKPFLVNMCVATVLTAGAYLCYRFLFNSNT
# Protocol: (§1) The test for determining the inhibitory effect of the active compound 2,2-dioxo-2,3dihydro-2,6-benzo[1,2,3]oxathiazol-5-yl)-(9-ethyl-9H-carbazol-3-ylmethyl)amine using the DiFMUP test takes place in a black microtiter plate at a temperature of 37° C. 120 μl volumes of reaction buffer are provided, with the buffer containing the following components: 100 ng of protein tyrosine phosphatase PTP1B/ml; 50 mM Hepes, pH 6.9; 150 mM NaCl; 1 mM EDTA; 2 mM DTT. To this are added 15 μl of the inhibitor solution to be tested, at a variety of concentrations. The phosphatase reaction is started by adding 15 μl of 1 mM DiFMUP solution and the fluorescence (measured in RFU) is measured, at time intervals of 30 seconds and over a period of 15 minutes, in a fluorescence microtiter plate photometer at 358/455 nm. The measure of the enzyme activity is the increase in fluorescence, which can be depicted graphically (FIG. 1). The reduction in enzymic activity which is obtained depends on the concentration of inhibitor employed. The inhibitor concentration at which the active compound 2,2-dioxo-2,3-dihydro-2,6-benzo[1,2,3]oxathiazol-5-yl)-(9-ethyl-9H-carbazol-3-ylmethyl)amine reduces the activity of the PTP1B by half (IC-50) can be determined to be 3.8 μM. The IC-50 values using the pNPP test method and the malachite green phosphopeptide test were determined for comparison. […]
# PTP1B [2] = molecular target: T2, PTP1B (Homo sapiens, UniProt P18031); assay: malachite green phosphopeptide test; settings: malachite green phosphopeptide test method, for comparison
# T2 sequence (P18031 1-435): T1 sequence (P18031 1-435)
# Description: The malachite green phosphopeptide test has been described as another method for measuring the activity of protein tyrosine phosphatases. Martin et al. (1985) Journal of Biological Chemistry, 260, pp. 14932 and Harder et al. (1994) Biochemical Journal, 298, pp. 395. In this method, the inorganic phosphate which the phosphatase has released from its substrate peptide is detected photometrically using the malachite green reagent. […]
# as §1, with “120 μl volumes of reaction buffer are provided, with the buffer containing the following components: 100 ng of protein tyrosine phosphatase PTP1B/ml; 50 mM Hepes, pH 6.9; 150 mM NaCl; 1 mM EDTA; 2 mM DTT. To this are added 15 μl of the inhibitor solution to be tested, at a variety of concentrations.” left out, “The reduction in enzymic activity which is obtained depends on the concentration of inhibitor employed.” left out
# PTP1B [3] = molecular target: T2, PTP1B; assay: pNPP test method; settings: for comparison
# Description: The prior art discloses methods for measuring the activity of a protein tyrosine phosphatase using the substrate p-nitrophenyl phosphate (“p-NPP”). These methods are to be found in standard biochemical manuals such as Current Protocols in Protein Science: John E. Coligan (ed.), Ben M. Dunn (ed.), Hidde L. Ploegh (ed.), David W. Speicher (ed.), Paul T. Wingfield (ed.); SBN: 0-471-11184-8; loose-leaf pages, continuously updated; published by John Wiley & Sons. In these methods, the action of a phosphatase forms p-nitrophenol from the p-NPP. The p-nitrophenol thus produced can be measured photometrically on the basis of its intense yellow color in the alkaline range.
# However, this test method has some unfavorable features. […] The increase in the pH leads to the color of the resulting p-nitrophenol changing to yellow, the absorption of which is determined photometrically and is a measure of the quantity of p-nitrophenol which is present. […]
# The test for determining the inhibitory effect of the active compound 2,2-dioxo-2,3dihydro-2,6-benzo[1,2,3]oxathiazol-5-yl)-(9-ethyl-9H-carbazol-3-ylmethyl)amine using the DiFMUP test takes place in a black microtiter plate at a temperature of 37° C. […] The measure of the enzyme activity is the increase in fluorescence, which can be depicted graphically (FIG. 1). […]
# [4] = molecular target: T1, protein tyrosine phosphatase PTP1B; assay: Concentration dependence of the cleavage of DiFMUP by PTP1B (Lineweaver-Burk analysis); settings: DiFMUP as substrate 0-200 μM, 100 ng PTP1b/ml, pH 6.9, 37° C.
# Protocol: The reaction takes place in a black microtiter plate at a temperature of 37° C. 135 μl of reaction buffer are provided in each case, with this buffer containing the following components: 100 ng of protein tyrosine phosphatase PTP1b/ml; 50 mM Hepes, pH 6.9; 150 mM NaCl; 1 mM EDTA; 2 mM DTT. The phosphatase reaction is started by adding 15 μl of DiFMUP solution, which contains the substrate at 10 times the final concentration which is desired in the test mixture (FIG. 2: 0-200 μM), and the fluorescence is measured, at time intervals of 30 seconds for a period of 15 minutes, in a fluorescence microtiter plate photometer at 358/455 nm. The measure of the enzyme activity is the increase in fluorescence (measured in RFU) in dependence on the DiFMUP concentration, which can be depicted graphically (FIG. 2). This graph can subsequently be used to determine the kinetic constants of the enzyme reaction by means of a Lineweaver-Burk analysis. […] This analysis can also be carried out in an analogous manner for other tyrosine phosphatases.
IC50 [1],IC50 (PTP1B [2]),IC50 (PTP1B [3]),Km [4],Vmax [4],SMILES
3.8 µM,3.9 µM,5.1 µM,,,"CCn1c2ccccc2c2cc(CNc3ccc4c(c3)NS(=O)(=O)O4)ccc21 [2,2-dioxo-2,3-dihydro-2,6-benzo[1,2,3]oxathiazol-5-yl)-(9-ethyl-9H-carbazol-3-ylmethyl)amine]"
,,,19 µM,388000 RFU sec-1 mg-1,"Cc1cc(=O)oc2c(F)c(OP(=O)(O)O)c(F)cc12 [DiFMUP, 6,8-difluoro-4-methylumbelliferyl phosphate]"
